Test [1] has as its system TARC expression in PBMCs stimulated with HDM and IL-4. Kind of test: TARC in PBMCs treated by HDM and hIL-4. The class given is cell-based, human. The following applies: HDM 10 ug/ml, IL-4 750 ug/ml; three antibody concentrations. Here is the method:
(§1) 0.2 million PBMCs in 100 ul medium (RPMI1640, 10% heat-inactivated FBS) were added to each well of 96 well cell culture plate. BFB759 at multiple concentrations in 50 ul medium was added to the wells. The cells were incubated in the incubator for 45 min. Then, 50 ul HDM solution (final concentration 10 ug/ml) was added to the wells. After 7 days incubation, the supernatant was transferred to a new 96 well plate, and used in TARC ELISA right away, or frozen in −80 C freezer for ELISA later. For the combination studies of BFB759 with other drugs, the single agent or combination of drugs were added to the PBMCs, incubated for 45 min, then HDM solution, or HDM and IL-4 or IL-13 solution were added to the wells. The assay was incubated for 7 days, and the supernatant was harvested for TARC ELISA.
Dupilumab is approved for treatment of AD (Atopic Dermatitis). It inhibits IL-4/13 signaling by blocking their binding to IL-4Ra. […] (FIG. 15)
In the data shown in FIG. 15, HDM was used at 10 ug/ml, IL-4 was used at […], antibodies were at three different concentrations as shown in the graph. Data shown are mean±s.d.

For test [2], the system named is TARC production in HDM stimulated human PBMCs. The test is described as follows: TARC production in HDM stimulated human PBMCs. The class given is cell-based.
Source text: Materials included Human peripheral blood mononuclear cells (PBMCs) that were isolated from healthy donor blood and either frozen in liquid nitrogen and thawed prior to analysis or used fresh. Materials also included HDM (house dust mite extract) that was from Greer lab and purchased through Fisher Scientific (NC9756554, Lot #390844). Additionally, Human IL-4 (204-IL-010) was purchased from R&D Systems; Human IL-13 (200-13) was purchased from Peprotech; JAK inhibitors (JAKi) Abrocitinib (HY-107429) and Upadacitinib (HY-19569) were purchased from MedChemExpress; Dexamethasone (D4902) was purchased from Sigma-Aldrich; Dupilumab (HY-P9926) was purchased from MedChemExpress; Tralokinumab was produced by Bluefin Biomedicine according to the published protein sequence; and TARC ELISA kits (DuoSet Cat #DY364, Quantikine Cat #SDN00) were purchased from R&D Systems.
Blood was drawn in heparin tubes from healthy volunteers. PBMCs were isolated by centrifugation of the blood over Ficoll-Paque Plus density gradients using LeucoSep tubes.
as §1

Test [3] has as its system IL-6 secretion in human whole blood cultures stimulated with HKCA. The test is described as follows: IL-6 production in human whole blood cultures stimulated with heat-killed Candida albicans. The class given is cell-based. The note with it: 24 hours, 1 μg/ml alone, combination 1 μg/ml BFB759 + 0.5 μg/ml adalimumab. From the text:
Materials included Human peripheral blood drawn from 5 healthy donors. Materials also included Anti-human TNF alpha (Adalimumab Biosimilar), BioXCell cat #SIM0001, lot #8024221F1; Heat-killed Candida albicans (HKCA), InvivoGen cat #tlrl-hkca, lot #6292-44-02; RPMI 1640 with L-glutamine and HEPES, Corning cat #10-041-CM; and Human IL-6 DuoSet ELISA, R and D Systems cat #DY206-05. Blood was drawn into heparin tubes from healthy volunteers. Whole blood cultures comprised of whole blood diluted with plain RPMI 1640 medium were set up in sterile 5.0 ml polypropylene snap cap culture tubes. One of the following treatments were added for 1 hour prior to either being left unstimulated or receiving stimulation with 1.5×10^6 cells heat-killed Candida albicans: medium alone (cells alone), 1 μg/ml IgG1 isotype control antibody alone, 1 μg/ml BFB759 alone, 1 μg/ml adalimumab alone, or one of two combination treatments of 1 μg/ml IgG1 isotype control antibody+0.5 μg/ml adalimumab or 1 μg/ml BFB759+0.5 μg/ml adalimumab. The final volume of each culture was 1.0 ml. Cultures were incubated for 24 hours at 37° C./5% CO2. Supernatants harvested from each culture in duplicate were frozen at −80° C. until assayed in duplicate for IL-6 levels by ELISA.

For test [4], the system named is normal human dermal fibroblasts (NHDF). The test is described as follows: IL-6 and IL-8 production in NHDF stimulated with cytokine combo incl. TNF-α. The note with it: cytokine combo IL-1α/β, IL-36α/β/γ, antibodies 0-20 ug/ml, BFB759 0.5 ug/ml in combination. The class given is cell-based. As to the method:
(§2) Human NHDF cells were plated on 96-well, flat-bottom plates at 4,000 cells/well. […] For combination therapy, 0.5 ug/ml BFB759 was mixed with adalimumab or isotype control antibody at increasing concentrations (0-20 ug/ml, 5-fold dilution) and incubated with cells in duplicate for 45 minutes, prior to the addition of cytokine combo. The plates were then incubated overnight at 37° C., 5% CO2. 24 hours after treatment, supernatants were transferred and assayed for IL-6 and IL-8, as per manufacture's protocol (R&D Systems; Human IL-6 DuoSet ELISA, Human IL-8/CXCL8 DuoSet ELISA). The raw assay data were analyzed using GraphPad Prism 9 software to perform a non-linear regression.

Test [5] has the same test system. Kind of test: IL-6 and IL-8 production in NHDF stimulated with cytokine combo incl. IL-17A. Format: cell-based. The note with it: cytokine combo IL-1α/β, IL-36α/β/γ, antibodies 0-20 ug/ml, BFB759 0.5 ug/ml in combination. As to the method: as §2, with “Secukinumab” for “adalimumab”, “Isotype” for “isotype”

The record followed here is patent US20260008856A1, “METHODS OF TREATING DISEASE USING ANTI-IL1RAP ANTIBODIES AND ANTIBODY DRUG CONJUGATES” (Bluefin Biomedicine, Inc., priority 2022, published 2026).

With “Dupilumab: approved for Atopic Dermatitis; inhibits IL-4/13 signaling by blocking their binding to IL-4Ra”, in test [1], the “inhibition of TARC expression in the HDM and IL-4 model” value is “partially inhibits”. For the same compound, the “inhibition of TARC level” value in test [2] (HDM stimulated PBMCs, same assay) is given as “does not inhibit TARC level significantly”. Also, the “inhibition of HDM induced TARC level, FIG. 13” value in test [2] (antibodies 30 ug/ml, HDM 10 ug/ml) is recorded as “does not or minimally inhibits”.

Turning to adalimumab [reference compound], the “inhibition of IL-6 secretion” value in test [3] is given as “inhibit IL-6 secretion”. Besides, in test [4], the IL-6 production result is “limited inhibition” and the IL-8 production result is given as “limited inhibition”.

Consider `CCCS(=O)(=O)N[C@H]1C[C@@H](N(C)c2ncnc3[nH]ccc23)C1` [Abrocitinib], for which the “inhibition of TARC in HDM stimulated cells” value in test [2] (HDM 10 ug/ml, JAKi and dexamethasone 0.1 nM, 10 nM, 1 uM, BFB759 1 ug/ml in combination) was “dose dependent inhibition”.

Consider “Secukinumab: anti-IL-17A antibody [reference compound]”, for which, in test [5], the IL-6 production result is on record as “limited inhibition” and the IL-8 production entry is “limited inhibition”.
